# Data from PMC4795174 (Biochemistry, 2015).
# Biological target: BlaC (β-lactamase) (Mycobacterium tuberculosis, UniProt P9WKD3)
# Type: biochemical
# Conditions: read-out: KI
# BlaC (β-lactamase), sequence (P9WKD3 41-307): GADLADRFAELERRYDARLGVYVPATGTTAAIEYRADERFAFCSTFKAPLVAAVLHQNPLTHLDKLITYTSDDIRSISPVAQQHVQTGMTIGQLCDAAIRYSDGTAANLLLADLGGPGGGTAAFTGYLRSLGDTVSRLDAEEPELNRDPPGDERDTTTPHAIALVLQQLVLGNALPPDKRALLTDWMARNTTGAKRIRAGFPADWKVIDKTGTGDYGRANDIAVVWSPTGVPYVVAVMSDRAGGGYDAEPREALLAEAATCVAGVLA
structure (smiles),measurement,value
O=C(O)[C@H]1/C(=C/CO)O[C@@H]2CC(=O)N21 [clavulanate],KI (inactivation),6.3 µM
